According to patent publication US7473822B1, “Soybean transformation and regeneration using half-seed explant” (Iowa State University Research Foundation, Inc., priority 2005, dated 2009):

Columns and labels:
[1] = tested on: soybean half-seed explants; assay: Shoot induction on half-seed explants with BAP added to shoot induction medium; conditions: BAP 15-100 μM in shoot induction medium, compared to no treatment or 2.5-7.5 μM
Protocol: (§1) After co-cultivation, the half-seed explants were washed in liquid shoot induction (SI) medium (see Table III). The explants were cultured on shoot induction medium solidified with 0.7% agar in the absence of selection. The base of the explant (i.e., the part of the explant from where the embryonic axis was removed) was embedded in the medium, facing upwards. […] Shoot induction was carried out in a Percival Biological Incubator at 24° C. with an 18-hr photoperiod at 140 μmoles sec^−1m^−2 light intensity. After 14 days, the explants were transferred to fresh shoot induction medium containing 6 mg/l glufosinate. After four weeks of culture on shoot induction medium, explants were transferred to shoot elongation (SE) medium containing 6 mg/l glufosinate (see Table IV). Two to four weeks later, elongated shoots (>2.5 cm) were dipped in sterile IBA (1 mg/l) and then transferred to rooting medium (see Table V) without glufosinate. After two weeks, agar medium was rinsed off of the rooted plantlets with water, and the rooted plantlets were transplanted to soil (Redi-Earth, Peat-Lite Mix, Scotts-Sierra Horticultural Products Company, Marysville, Ohio) in jiffy pots. The plant (R0) was grown at 24° C. with an 18-hr photoperiod for one-two weeks and then transferred to the greenhouse.

[2] = tested on: Thorne soybean half-seed explants; assay: Agrobacterium-mediated transformation and regeneration of half-seed explants from seeds soaked in BAP; conditions: for Initial Transformation Efficiency (ITE; %): ITE = no. of Liberty-resistant R0 events/no. of explants infected
Protocol: Mature Thorne soybean seeds were surface-sterilized for 16 hrs using chlorine gas, which was produced by mixing 3.5 ml of 12 N HCl with 100 ml of commercial bleach (5.25% sodium hypochloride) (Di et al., Plant Cell Rep. 15: 746-750 (1996)). […] The seeds were then split by cutting longitudinally along the hilums to separate the cotyledons, and the seed coats, primary shoots, and embryonic axes were removed, thereby generating half-seed explants. The half-seed explants were co-cultivated with A. tumefaciens for five days in the light. […]
About 50-100 half-seed explants were inoculated with 30 ml of Agrobacterium suspension culture in a 20×100 mm Petri dish at RT for 30 min. After inoculation, half-seed explants were transferred to co-cultivation medium lined with filter paper (6 explants per plate; flat side of explant in contact with filter paper) (see Table II). Co-cultivation was carried out for five days at 24° C. with 18 hr photoperiod at 140 μmoles sec^−1m^−2 light intensity.
as §1
R0 plants with two trifoliates were screened using the herbicide paint assay to identify putative transformants that expressed the bar gene. The upper surface of a leaf was painted with 150 mg/l glufosinate (herbicide Liberty®, AgrEvo, U.S.A.) along the midrib using a cotton bud. Plants were scored based on the tolerance of the leaf tissue to glufosinate at three-five days after painting. Glufosinate-resistant R0 plants were grown in the greenhouse until maturity and seeds were harvested. Subsequently, seeds from R0 plants were sown and progeny-tested to confirm the presence of the transgene in the R1 generation by spraying two-week-old seedlings with 200 mg/l glufosinate. Plants were scored one week after spraying. Thirty-two transgenic events were confirmed in the R1 progeny by spraying with 200 mg/l glufosinate using herbicide Liberty. […] Plants were fertile and produced seed.
After five days of co-cultivation, half-seed explants infected with pTF102 were assayed for transient GUS blue expression to verify T-DNA transfer. The explants were incubated overnight in 5-bromo-4-chloro-3-indolyl glucuronide (X-gluc) solution at 37° C. (Jefferson et al., EMBO J 6: 3901-3907 (1987)). After staining, the explants were de-stained with 70% ethanol to improve contrast. The incidence of GUS activity was determined based on the presence of blue-staining areas. In addition, stable GUS expression was determined after 28 days on regeneration medium or on R0 plants. The transgenic nature of the soybean plants was also confirmed in the R0 or R1 generation by histochemical GUS assay.

## c1ccc(CNc2ncnc3nc[nH]c23)cc1 [BAP, 6-benzylaminopurine]
[1]
  shoot formation (regeneration frequency): enhanced shoot formation
[2]; seeds soaked in 7.5 μM BAP
  Freq. GUS blue (on the section of explant where shoots were induced): (10%)
  Freq. GUS blue (on the section of explant where shoots were induced), count: 1/10
  No. of Liberty-resistant R0 plants: 0
  Reg. Freq. (%) (regeneration frequency at first shoot induction stage): (8) %
  Reg. Freq. (regeneration frequency at first shoot induction stage), explants count: 4/50
  Initial Transformation Efficiency (ITE; %): 0.0%
[2]; seeds soaked in 15 μM BAP
  Freq. GUS blue (on the section of explant where shoots were induced): (20%)
  Freq. GUS blue (on the section of explant where shoots were induced), count: 2/10
  No. of Liberty-resistant R0 plants: 3
  Reg. Freq. (%) (regeneration frequency at first shoot induction stage): (48) %
  Reg. Freq. (regeneration frequency at first shoot induction stage), explants count: 24/50
  Initial Transformation Efficiency (ITE; %): 6.0%
[2]; seeds soaked in 30 μM BAP
  Freq. GUS blue (on the section of explant where shoots were induced): (90%)
  Freq. GUS blue (on the section of explant where shoots were induced), count: 9/10
  No. of Liberty-resistant R0 plants: 2
  Reg. Freq. (%) (regeneration frequency at first shoot induction stage): (58) %
  Reg. Freq. (regeneration frequency at first shoot induction stage), explants count: 29/50
  Initial Transformation Efficiency (ITE; %): 4.0%
[2]; seeds soaked in 50 μM BAP
  Freq. GUS blue (on the section of explant where shoots were induced): (67%)
  Freq. GUS blue (on the section of explant where shoots were induced), count: 6/9
  No. of Liberty-resistant R0 plants: 0
  Reg. Freq. (%) (regeneration frequency at first shoot induction stage): (46) %
  Reg. Freq. (regeneration frequency at first shoot induction stage), explants count: 23/50
  Initial Transformation Efficiency (ITE; %): 0.0%
